Data on one compound can be found in patent US9457099B2, “Polyethylene glycol-based dendrons” (RUTGERS, THE STATE UNIVERSITY OF NEW JERSEY, priority 2010, dated 2016).

Data set [1] concerns J774.E murine macrophage cells. As to the kind of experiment: Confocal microscopy of dendron uptake. The conditions noted are these: 40 nM, 1 hr, with rhodamine B-labeled dextran and DAPI. Type of data set: cell-based. Here is the method: J774.E murine macrophage cells were grown as attached cells in a CO2 water-jacketed incubator (Form a Scientific Inc., Marietta, Ohio) with a humidified 5% CO2 atmosphere at 37° C. The cells were maintained in RPMI-1640 (GIBCO) containing 10% fetal bovine serum (FBS), 100 U/mL penicillin, and 100 μg/mL streptomycin/mL. The cells were seeded two days before experiment to 24-well plates at 0.5×10^5 cells/well for quantitative uptake measurement or to chambered coverglass (LAB-TEK II) at 1×10^5 cell/chamber for confocal microscopy. Cells were incubated with G3.0-Mannose (40 nM) in HBSS at 37° C. for 1 hr. For confocal microscopy, the incubation included the additional 0.16 mg/mL of the general endocytosis marker rhodamine B-labeled dextran (10,000 MW) and the nuclear dye DAPI. […]
In quantitative uptake experiments, the washed cells were lysed in wells overnight with 150 μL of 1 N NaOH solution and neutralized the next day with 150 μL of 1 N HCl solution, resulting in 300 μL of cell lysate/well. 250 μL of cell lysate was transferred to a well of a 96-well plate for 5-FAM fluorescence measurement on Tecan GENIOS fluorescent plate reader (Phenix Research Products, Hayward, Calif.). The total cell-associated fluorescence reading was converted into total cell-associated dendron amount using a separately established dendron's fluorescence standard curve. […]

Data set [2] has as its system J774.E murine macrophage cells. As to the kind of experiment: Quantitative macrophage uptake of dendrons (5-FAM fluorescence of cell lysate), with mannan inhibition. Type of data set: cell-based. On the procedure:
J774.E murine macrophage cells were grown as attached cells in a CO2 water-jacketed incubator (Form a Scientific Inc., Marietta, Ohio) with a humidified 5% CO2 atmosphere at 37° C. The cells were maintained in RPMI-1640 (GIBCO) containing 10% fetal bovine serum (FBS), 100 U/mL penicillin, and 100 μg/mL streptomycin/mL. The cells were seeded two days before experiment to 24-well plates at 0.5×10^5 cells/well for quantitative uptake measurement or to chambered coverglass (LAB-TEK II) at 1×10^5 cell/chamber for confocal microscopy. Cells were incubated with G3.0-Mannose (40 nM) in HBSS at 37° C. for 1 hr. For confocal microscopy, the incubation included the additional 0.16 mg/mL of the general endocytosis marker rhodamine B-labeled dextran (10,000 MW) and the nuclear dye DAPI. For Mannan inhibition studies, cells were pre-incubated with mannan (10 mg/mL) for 1 hr, followed by incubation with G3.0-Mannose, with or without rhodamine B-dextran/DAPI plus 10 mg/mL of mannan. After incubation, the unbound molecules were washed thrice using cold DPBS buffer. PEGtide dendron G3.0 (40 nM) (without mannose) was used as a negative control of mannose receptor-mediated cellular uptake.
In quantitative uptake experiments, the washed cells were lysed in wells overnight with 150 μL of 1 N NaOH solution and neutralized the next day with 150 μL of 1 N HCl solution, resulting in 300 μL of cell lysate/well. 250 μL of cell lysate was transferred to a well of a 96-well plate for 5-FAM fluorescence measurement on Tecan GENIOS fluorescent plate reader (Phenix Research Products, Hayward, Calif.). The total cell-associated fluorescence reading was converted into total cell-associated dendron amount using a separately established dendron's fluorescence standard curve. A small fraction of the lysate (about 50 μL, depending on cell density plated) was used to determine total cellular protein/well by Bradford Protein Assay. The total cellular protein/well was used to normalize the dendron amount/well to correct well-to-well variation in cell mass.

A further data set is described as follows: Cell viability MTT assay. Type of data set: cell-based. The conditions noted are these: mouse, J774.E murine macrophage cells; 40 nM in HBSS for 2 hours; mean±standard deviation (n=6); read-out: cell relative viability (MTT). On the procedure:
(1) Prepared MTT solution in PBS (pH 7.4) with final concentration of 5 mg/mL.
(2) Cultured J774.E muring macrophage cells with G3.0-Mannose, G3.0 and PAMAM G1.0, with each concentration of 40 nM, in HBSS for 2 hours. 6 replicates were applied. (n=6).
(3) Aspirated off the culture medium and washed with DPBS for three times for each well.
(4) 100 μL of HBSS and 25 μL of MIT solution were added to each well. Placed the plate in incubator at 37° C. overnight.
(5) Aspirated off the HBSS/MTT solution. Added 200 μL of DMSO for dissolving the crystals.
(6) Transferred to plate reader and measure the absorption at 570 nm.
(Tetrazolium assays rely on reduction of a dye to a coloured formazan, in cell work by metabolically active cells.)

A short description of data set [3]: Dynamic light scattering (DLS) analysis of dendrons. As to conditions: sample concentration 1 mg/mL, 4° C. Type of data set: physicochemical. On the procedure:
PEGtides were purified on an Alliance reverse-phase high-performance liquid chromatography (RP-HPLC) system (Waters, Mass.) using a Symmetry C18 column (4.6×150 mm, 100 Å, particle size 5 μm). Following mobile phase was used: solvent A, 0.05% aqueous TFA; and solvent B, acetonitrile containing 0.05% TFA. A linear gradient of 95% to 70% of A was applied for 60 min at a flow rate of 1 mL/min. The UV absorptions were monitored at 220 and 250 nm, whereas fluorescence detector was set with excitation and emission wavelengths of 492 and 518 nm, respectively. The dendrons and there derivatives were quantified on a F-7000 fluorescence spectrophotometer (HITACHI, Japan). Mass spectra were acquired on an ABI-MDS SCIEX 4800 matrix-assisted laser desorption/ionisation-time of flight (MALDI-TOF/TOF) mass spectrometer (AB Sciex, Foster City, Calif.). Sample solutions (2 μL) were mixed with matrix solution (20 μL, 20 mg/mL sinapinic acid in 50% aqueous acetonitrile containing 0.1% TFA). This mixture (1 μL) was spotted onto sample holder and dried under a gentle stream of argon at room temperature. All spectra were recorded in positive mode using a linear acquisition method. The dynamic light scattering (DLS) experiments were performed on a Wyatt Dynapro Titan instrument (Wyatt Technology, Santa Barbara, Calif.) with sample concentration of 1 mg/mL. […]

The term viability denotes a per cent measure of how many cells are alive, often set against a control. For the compound `O=C(O)CCNC(=O)[C@H](CCCCNC(=O)c1ccc2c(c1)C(=O)OC21c2ccc(O)cc2Oc2cc(O)ccc21)NC(=O)CCOCCOCCOCCOCCOCCOCCNC(=O)[C@H](CCCCNC(=O)CCNC(=O)CCOCCOCCOCCOCCOCCOCCNC(=O)[C@H](CCCCNC(=O)CCNC(=O)CCOCCOCCOCCOCCOCCOCCNC(=O)[C@H](CCCCNC(=O)CCNC(=O)CCOCCOCCOCCOCCOCCOCCNC(=S)Nc1ccc(O[C@H]2O[C@H](CO)[C@@H](O)[C@H](O)[C@@H]2O)cc1)NC(=O)CCNC(=O)CCOCCOCCOCCOCCOCCOCCNC(=S)Nc1ccc(O[C@H]2O[C@H](CO)[C@@H](O)[C@H](O)[C@@H]2O)cc1)NC(=O)CCNC(=O)CCOCCOCCOCCOCCOCCOCCNC(=O)[C@H](CCCCNC(=O)CCNC(=O)CCOCCOCCOCCOCCOCCOCCNC(=S)Nc1ccc(O[C@H]2O[C@H](CO)[C@@H](O)[C@H](O)[C@@H]2O)cc1)NC(=O)CCNC(=O)CCOCCOCCOCCOCCOCCOCCNC(=S)Nc1ccc(O[C@H]2O[C@H](CO)[C@@H](O)[C@H](O)[C@@H]2O)cc1)NC(=O)CCNC(=O)CCOCCOCCOCCOCCOCCOCCNC(=O)[C@H](CCCCNC(=O)CCNC(=O)CCOCCOCCOCCOCCOCCOCCNC(=O)[C@H](CCCCNC(=O)CCNC(=O)CCOCCOCCOCCOCCOCCOCCNC(=S)Nc1ccc(O[C@H]2O[C@H](CO)[C@@H](O)[C@H](O)[C@@H]2O)cc1)NC(=O)CCNC(=O)CCOCCOCCOCCOCCOCCOCCNC(=S)Nc1ccc(O[C@H]2O[C@H](CO)[C@@H](O)[C@H](O)[C@@H]2O)cc1)NC(=O)CCNC(=O)CCOCCOCCOCCOCCOCCOCCNC(=O)[C@H](CCCCNC(=O)CCNC(=O)CCOCCOCCOCCOCCOCCOCCNC(=S)Nc1ccc(O[C@H]2O[C@H](CO)[C@@H](O)[C@H](O)[C@@H]2O)cc1)NC(=O)CCNC(=O)CCOCCOCCOCCOCCOCCOCCNC(=S)Nc1ccc(O[C@H]2O[C@H](CO)[C@@H](O)[C@H](O)[C@@H]2O)cc1` [G3.0-Mannose], the “intracellular green fluorescence (5-FAM), confocal microscopy” value in data set [1] is given as “prominent only in G3.0-Mannose treated cells”. In addition, the “quantitative uptake in macrophage” value in data set [2] (40 nM in HBSS at 37° C. for 1 hr, normalized to total cellular protein) came out at 699.6 ± 1.8 pmol/µg. The “specificity for mannose receptor (uptake vs non-mannosylated G3.0)” value in data set [2] (40 nM, 1 hr) worked out at 53 fold. The “uptake in presence of mannan (mannan inhibition)” value in data set [2] (40 nM, 1 hr, cells pre-incubated 1 hr and co-incubated with mannan 10 mg/mL) came out at 7.5 ± 4.7 pmol/µg. Also, the viability at 2 h, 0.04 µM in the data set “Cell viability MTT assay” was 96.4 ± 7.81%. Besides, the “hydrodynamic radius (DLS)” value in data set [3] was 90.6 nm.
